Measurements: publication PMC11436758, “Computer-aided drug design to generate a unique antibiotic family” (Nature Communications, 2024)
≈ marks a conversion by molar mass, not a printed value. Where “and” joins values, the source holds several entries; their conditions need not be identical. Identical values can stand only once.

Assays:
[1] = biological target: T1, AcpS^H-/108A (Escherichia coli, UniProt P24224, H108A); test: Inhibition of purified AcpS site-directed mutant by DNM0547; type: biochemical, E. coli; settings: for AcpS rate nM/min, Mean / AcpS rate: Suppl Fig 3, [AcpS_H108A] 5nM; for AcpS rate: replicates
T1 construct: 6x-His (C); made in house

[2] = test system: 102 ATCC strains and clinical isolates of Staphylococcus, Streptomyces, and Enterococcus; test: MIC panel summary over all strains; type: cell-based; settings: of the seven strains above 2 μg/mL
Description: We also sought to determine if DNM0547 was bacteriostatic or bactericidal. Time kill experiments were carried out using increasing doses of DNM0547 against two different strains of MRSA.
The medium employed for the assay was Mueller Hinton II Broth (MHB II; Becton-Dickinson, Sparks, MD, USA). Agar plates used for the organisms were trypticase soy agar plus 5% sheep blood (BD; Sparks, MD, USA). MIC assay plates were prepared using the CLSI broth microdilution procedure. Automated liquid handlers (Multidrop 384, Biomek 2000 and Biomek FX) were used to conduct serial dilutions and liquid transfers. A standardized inoculum of each organism was prepared per CLSI methods. Suspensions were prepared to equal a 0.5 McFarland standard, followed by a 1:20 dilution in test media. The inocula were dispensed into sterile reservoirs divided by length (Beckman Colter) and the Biomek 2000 was used to inoculate the plates. Daughter plates were placed on the Biomek 2000 work surface in reverse orientation so that inoculation took place from low to high drug concentration. The Biomek 2000 delivered 10 μL of the diluted suspension into each well. These inoculations yielded a final cell concentration in the daughter plates of ~5 × 10^5 colony-forming units/mL in each well. The wells of the daughter plates ultimately contained 185 μL of broth, 5 μL of drug solution, and 10 μL of bacterial inoculum. Plates were covered with a sterile lid on the top plate, placed in plastic bags, and incubated at 35 °C for ~18 h. The microplates were viewed from the bottom using a plate viewer and the MIC was read. The MIC was recorded as the lowest concentration of drug that inhibited visible growth of the organism.

[3] = Histopathology (H&E) of treated rabbit ischemic ear wounds, dermal toxicity
Description: Wounds were excised, fixed, and routine H&E staining was performed. Wounds were examined for pathology and scored in a blinded manner.
Post-wounding, under anesthesia, animals were euthanized with an intravenous injection of Beuthanasia-D at a dosage of 150 mg/kg of body weight. Specimens including the entire wound, along with ~2–3 mm of the normal unwounded skin margins were harvested. Each ear wound specimen was sectioned into halves. For one half of the wound, the wound was placed into a container with 10% neutral buffered formalin and processed for routine histological evaluation. Wounds were scored on a scale of 0–4 at the wound site for erythema, edema, inflammation, granulation, angiogenesis, and epithelialization. Wounds were characterized in a blinded manner by a board-certified member of the College of American Pathologists.

[4] = Dermal pharmacokinetics, serum concentration after topical application; type: in vivo, Sprague Dawley rats
Description: We determined that the maximum concentration present in serum was 1.02 μg/mL at 7.0 h after application with a time½ of 8.7 h. By 24 h the concentration of DNM0547 had decreased to 0.06 μg/mL and by 48 h was 0.03 μg/mL (Supplementary Fig. 8).
Rat PK. […]
Supplementary Figure 8. Dermal PK of DNM0547. a, 2% DNM0547 was applied to shaved skin of Sprague Dawley rats and DNM0547 concentration in serum was determined over time (n=5). b, PK parameters for DNM0547 in serum. CV, coefficient variation was determined using Graphpad Prism.
(1 picture or pasted object on this page, not shown here)

[5] = test system: wild type (K12) E. coli; test: MIC, wild type E. coli; type: cell-based; settings: Escherichia coli
From the text: The outer membrane of Gram-negative bacteria is a robust permeability barrier that prevents many antibiotics from entering Gram-negative cells[46],[47]. The outer leaflet of this outer membrane is primarily composed of the unique lipid lipopolysaccharide (LPS). Strains of E. coli with point mutations in genes coding for LPS biosynthetic enzymes have been isolated that enable some antibiotics to effectively pass through the outer membrane enabling activity against these strains of E. coli[48]–[54]; one such strain is E. coli (D22) which contains a point mutation in the lpxC gene.
The medium employed for the assay was Mueller Hinton II Broth (MHB II; Becton-Dickinson, Sparks, MD, USA). Agar plates used for the organisms were trypticase soy agar plus 5% sheep blood (BD; Sparks, MD, USA). MIC assay plates were prepared using the CLSI broth microdilution procedure. Automated liquid handlers (Multidrop 384, Biomek 2000 and Biomek FX) were used to conduct serial dilutions and liquid transfers. A standardized inoculum of each organism was prepared per CLSI methods. Suspensions were prepared to equal a 0.5 McFarland standard, followed by a 1:20 dilution in test media. […] The microplates were viewed from the bottom using a plate viewer and the MIC was read. The MIC was recorded as the lowest concentration of drug that inhibited visible growth of the organism. […]

[6] = 2% on shaved skin, serum, mean, n=5

T1 sequence (P24224 whole entry H108A): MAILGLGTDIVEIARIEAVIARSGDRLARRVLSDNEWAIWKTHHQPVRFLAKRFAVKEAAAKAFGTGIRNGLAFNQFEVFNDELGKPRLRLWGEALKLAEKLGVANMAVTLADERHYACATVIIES

With CC(C)c1cc(Cl)ccc1-c1cc(-c2nnn[nH]2)c(-c2ccc(Cl)cc2C(C)C)s1 [DNM0547] the IC50 [1] was 5.6 µM, the “AcpS rate nM/min, Mean” value ([1]; Drug Conc 1 uM) was 7.81 nM/min and the “AcpS rate” value ([1]; Drug Conc 1 uM) was 7.96 nM/min and 7.81 nM/min and 7.64 nM/min. For the same compound, the “AcpS rate nM/min, Mean” value ([1]; Drug Conc 2 uM) was 6.86 nM/min, the “AcpS rate” value ([1]; Drug Conc 2 uM) was 6.91 nM/min and 7.01 nM/min and 6.66 nM/min and the “AcpS rate nM/min, Mean” value ([1]; Drug Conc 4 uM) was 4.72 nM/min. For the same compound, the “AcpS rate” value ([1]; Drug Conc 4 uM) was 4.74 nM/min and 4.76 nM/min and 4.66 nM/min, the “AcpS rate nM/min, Mean” value ([1]; Drug Conc 8 uM) was 3.23 nM/min and the “AcpS rate” value ([1]; Drug Conc 8 uM) was 2.93 nM/min and 3.30 nM/min and 3.44 nM/min. For the same compound, the “AcpS rate nM/min, Mean” value ([1]; Drug Conc 16 uM) was 2.83 nM/min, the “AcpS rate” value ([1]; Drug Conc 16 uM) was 3.20 nM/min and 2.39 nM/min and 2.90 nM/min and the “AcpS rate nM/min, Mean” value ([1]; Drug Conc 32 uM) was 1.69 nM/min. For the same compound, the “AcpS rate” value ([1]; Drug Conc 32 uM) was 1.65 nM/min and 1.74 nM/min and 1.68 nM/min, the “AcpS rate nM/min, Mean” value ([1]; Drug Conc 64 uM) was 1.60 nM/min and the “AcpS rate” value ([1]; Drug Conc 64 uM) was 1.52 nM/min and 1.63 nM/min and 1.65 nM/min. The “AcpS rate nM/min, Mean” value ([1]; Drug Conc 128 uM) was 1.34 nM/min, the “AcpS rate” value ([1]; Drug Conc 128 uM) was 1.38 nM/min and 1.44 nM/min and 1.20 nM/min and the remaining activity at 1 µM ([1]; read-out: % of untreated, Suppl Fig 3, [AcpS_H108A] 5nM, Drug Conc 1 uM, replicates) was 105%. It also gave a remaining activity at 2 µM ([1]; read-out: % of untreated, Suppl Fig 3, [AcpS_H108A] 5nM, Drug Conc 2 uM, replicates) of 90.9%, a remaining activity at 4 µM ([1]; read-out: % of untreated, Suppl Fig 3, [AcpS_H108A] 5nM, Drug Conc 4 uM, replicates) of 62.4% and a remaining activity at 8 µM ([1]; read-out: % of untreated, Suppl Fig 3, [AcpS_H108A] 5nM, Drug Conc 8 uM, replicates) of 38.5%. The remaining activity at 16 µM ([1]; read-out: % of untreated, Suppl Fig 3, [AcpS_H108A] 5nM, Drug Conc 16 uM, replicates) was 42.1%, the remaining activity at 32 µM ([1]; read-out: % of untreated, Suppl Fig 3, [AcpS_H108A] 5nM, Drug Conc 32 uM, replicates) was 21.7% and the remaining activity at 64 µM ([1]; read-out: % of untreated, Suppl Fig 3, [AcpS_H108A] 5nM, Drug Conc 64 uM, replicates) was 20%. The remaining activity at 128 µM ([1]; read-out: % of untreated, Suppl Fig 3, [AcpS_H108A] 5nM, Drug Conc 128 uM, replicates) was 18.1%, the “number of strains with MIC 4 μg/mL” value [2] was “four” and the “number of strains with MIC 8 μg/mL” value [2] was “two”. For the same compound, the “number of strains with MIC 32 μg/mL” value [2] was “one”, the “toxicity to dermal cells, histopathology” value ([3]; 2% cream, 18 days of exposure of the rabbit ear wound) was “no indication of toxicity” and the “erythema, edema, angiogenesis and epithelization scores” value ([3]; 2% cream, 18 days, compared to 2% mupirocin or cream control) was “improved”. For the same compound, the Angiogenesis ([3]; Suppl Fig 7, score per wound) was 1 and 2, the Edema ([3]; Suppl Fig 7, score per wound) was 1 and 2 and the Erythema ([3]; Suppl Fig 7, score per wound) was 1 and 2. For the same compound, the Granulation ([3]; Suppl Fig 7, score per wound) was 2 and 1, the Inflammation ([3]; Suppl Fig 7, score per wound) was 2 and 3 and 4 and the “maximum concentration present in serum” value ([4]; 2% applied topically) was 1.02 µg/mL. For the same compound, the Concmax [4, 6] was 1020 ng/mL, the Time1/2 [4, 6] was 8.78 h and 8.7 h and the Timemax [4, 6] was 7.00 h and 7.0 h. For the same compound, the concentration at 6 h ([4]; Sprague Dawley, rat, in vivo, 2 %, Suppl Fig 8, Hour 6, individual animals, read-out: DNM0547 conc) was 261 ng/mL, the concentration at 12 h ([4]; Sprague Dawley, rat, in vivo, 2 %, Suppl Fig 8, Hour 12, individual animals, read-out: DNM0547 conc) was 386 ng/mL and the Tmax ([4]; Sprague Dawley, rat, serum, topical or ocular, 2% applied topically, read-out: time of maximum serum concentration after application) was 7 h. The concentration at 24 h ([4]; Sprague Dawley, rat, serum, topical, 2 %, 2% applied topically, 24 h) was 60 ng/mL, the concentration at 48 h ([4]; Sprague Dawley, rat, serum, topical, 2 %, 2% applied topically, 48 h) was 30 ng/mL and the “DNM0547 conc” value ([4]; Suppl Fig 8, Hour 3, individual animals) was 387 ng/mL and 281 ng/mL and 713 ng/mL and 1147 ng/mL and 236 ng/mL and 356 ng/mL. For the same compound, the “DNM0547 conc” value ([4]; Suppl Fig 8, Hour 6, individual animals) was 449 ng/mL and 1172 ng/mL and 560 ng/mL and 656 ng/mL and 1620 ng/mL, the “DNM0547 conc” value ([4]; Suppl Fig 8, Hour 9, individual animals) was 623 ng/mL and 414 ng/mL and 681 ng/mL and 201 ng/mL and 177 ng/mL and 767 ng/mL and the “DNM0547 conc” value ([4]; Suppl Fig 8, Hour 12, individual animals) was 477 ng/mL and 879 ng/mL and 564 ng/mL and 277 ng/mL and 158 ng/mL. For the same compound, the “DNM0547 conc” value ([4]; Suppl Fig 8, Hour 24, individual animals) was 65 ng/mL and 33 ng/mL and 92 ng/mL and 38 ng/mL and 45 ng/mL and 60 ng/mL, the “DNM0547 conc” value ([4]; Suppl Fig 8, Hour 48, individual animals) was 46 ng/mL and 21 ng/mL and 55 ng/mL and 17 ng/mL and 16 ng/mL and 14 ng/mL and the MIC [5] was 256 µg/mL (≈ 560 µM).
